Test results published in patent US20200046837A1, “UROGENITAL MEDICAL DEVICE FORMULATION BASED ON SUITABLE BIOCHEMICAL COMPOSITIONS FOR THE STABILIZATION OF THE ACIDITY AND THE REDOX STATE OF THE VAGINAL FLUID” (PROBIOSWISS AG, priority 2016, published 2020).
Read-outs that look alike come from different tables or passages of the source.

Columns and labels:
[1] = system: Gram-positive bacteria such as Lactobacilli; settings: cited from earlier work
[2] = Redox potential and pH of media formulation before and after addition of test compounds; settings: M17-type medium
Description: After measurement of redox potential and pH several compounds (nitrogen and sulphur sources) were added to this medium and their effect on pH and redox potential was determined.
Redox values were read after the signal was stable for at least 30 seconds. In addition the pH was measured using a standard pH Electrode connected to a MP225 pH Meter (Mettler Toledo).

[3] = system: K. pneumoniae; settings: cited from earlier work
[4] = system: Lactobacillus jensenii KS 119.1; settings: for OD: OD at 590 nm
Description: (§1) Growth was determined by measurement of optical density and pH at start, after 6 hours and after 24 hours.
(§2) All cultures were re-activated from cryopreserved (−80° C.) working stocks by cultivation on MRS agar for 1 to 3 days. A single colony from these plates was used to inoculate 5 ml of MRS broth. After incubation overnight, 10^7 cfu/ml were used to carry out the experiments.

[5] = system: Lactobacillus gasseri KS 120.1; settings: for OD: OD at 590 nm
Description: as §1, §2

[6] = system: Saccharomyces cerevisiae; settings: cited from earlier work
[7] = system: Penicillium notatum; settings: cited from earlier work
[8] = system: S. aureus; settings: cited from earlier work
[9] = system: tested lactobacilli (gasseri, crispatus and jensenii)
[10] = system: Aspergillus niger; settings: cited from earlier work
[11] = system: E. coli; settings: cited from earlier work
[12] = system: Lactobacillus crispatus KS 119.4; settings: for OD: OD at 590 nm;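 for all read-outs here: growth in MRS broth cultures, followed via optical density and pH at the start, after 6 h and after 24 h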
[13] = system: bacterial vaginosis; settings: women with a negative redox potential; cited from earlier work

In the case of `Clc1ccccc1C(c1ccccc1)(c1ccccc1)n1ccnc1` [Clotrimazole], the “activity against Gram-positive bacteria” value [1] is listed as “bactericidal activity”.
In the case of `N[C@@H](CS)C(=O)O` [Cysteine], the “redox potential (Eh) of the medium after addition of the compound” value (“redox potential (Eh) of the medium” below) [2] is reported as −103 mV.
With `N[C@@H](CSSC[C@H](N)C(=O)O)C(=O)O` [Cystine] the “effect of the added compound on the redox potential” value [2] was “high positive redox potential”.
With `CS(C)(=O)=O` [MSM, dimethylsulfone] the “effect of the added compound on the redox potential” value [2] was “high positive redox potential”.
In the case of `C/C=C/C=C/C(=O)[O-].[K+]` [Potassium Sorbate, potassium sorbate], the “microbiostatic concentration for the inhibition of growth” value [3] is listed as 50 to 100 µg/mL, the Interpretation ([4]; potassium sorbate 0.10%) is listed as 0 and the pH ([4]; potassium sorbate 0.10%, 0 h) is listed as 4.5. It also gave an OD ([4]; potassium sorbate 0.10%, 0 h) of 0.08, a pH ([4]; potassium sorbate 0.10%, 6 h) of 4.5 and an OD ([4]; potassium sorbate 0.10%, 6 h) of 0.23. The pH ([4]; potassium sorbate 0.10%, 24 h) was 4.5, the OD ([4]; potassium sorbate 0.10%, 24 h) was 0.44 and the Interpretation ([4]; potassium sorbate 0.50%) was 1. It also gave a pH ([4]; potassium sorbate 0.50%, 0 h) of 4.5, an OD ([4]; potassium sorbate 0.50%, 0 h) of 0.07 and a pH ([4]; potassium sorbate 0.50%, 6 h) of 4.5. For the same compound, the OD ([4]; potassium sorbate 0.50%, 6 h) was 0.11, the pH ([4]; potassium sorbate 0.50%, 24 h) was 4.85 and the OD ([4]; potassium sorbate 0.50%, 24 h) was 0.124. The Interpretation ([4]; potassium sorbate 1.00%) was 2, the pH ([4]; potassium sorbate 1.00%, 0 h) was 5.03 and the OD ([4]; potassium sorbate 1.00%, 0 h) was 0.18. The pH ([4]; potassium sorbate 1.00%, 6 h) was 5.01, the OD ([4]; potassium sorbate 1.00%, 6 h) was 0.26 and the pH ([4]; potassium sorbate 1.00%, 24 h) was 5.09. It also gave an OD ([4]; potassium sorbate 1.00%, 24 h) of 0.16, an Interpretation ([4]; potassium sorbate […]) of 2 and a pH ([4]; potassium sorbate […], 0 h) of 5.32. It also gave an OD ([4]; potassium sorbate […], 0 h) of 0.17, a pH ([4]; potassium sorbate […], 6 h) of 5.18 and an OD ([4]; potassium sorbate […], 6 h) of 0.24. It also gave a pH ([4]; potassium sorbate […], 24 h) of 5.25, an OD ([4]; potassium sorbate […], 24 h) of 0.13 and an Interpretation ([5]; potassium sorbate 1.00%) of 1. For the same compound, the pH ([5]; potassium sorbate 1.00%, 0 h) was 5.16, the OD ([5]; potassium sorbate 1.00%, 0 h) was 0.54 and the pH ([5]; potassium sorbate 1.00%, 6 h) was 5. The OD ([5]; potassium sorbate 1.00%, 6 h) was 0.78, the pH ([5]; potassium sorbate 1.00%, 24 h) was 5.07 and the OD ([5]; potassium sorbate 1.00%, 24 h) was 0.97. It also gave an Interpretation ([5]; potassium sorbate […]) of 1, a pH ([5]; potassium sorbate […], 0 h) of 5.31 and an OD ([5]; potassium sorbate […], 0 h) of 0.53. For the same compound, the pH ([5]; potassium sorbate […], 6 h) was 5.26, the OD ([5]; potassium sorbate […], 6 h) was 0.73 and the pH ([5]; potassium sorbate […], 24 h) was 5.26. The OD ([5]; potassium sorbate […], 24 h) was 0.72, the “microbiostatic concentration for the inhibition of growth” value [6] was 50 to 100 µg/mL and the “microbiostatic concentration for the inhibition of growth” value [7] was 200 to 500 µg/mL. For the same compound, the “microbiostatic concentration for the inhibition of growth” value [8] was 50 to 100 µg/mL, the “concentration required for a slight inhibition” value [9] was at least 0.5% and the “microbiostatic concentration for the inhibition of growth” value [10] was 200 to 500 µg/mL. For the same compound, the “microbiostatic concentration for the inhibition of growth” value [11] was 50 to 100 µg/mL, the Interpretation ([12]; potassium sorbate 0.01%) was 0 and the pH ([12]; potassium sorbate 0.01%, 0 h) was 4.71. For the same compound, the OD ([12]; potassium sorbate 0.01%, 0 h) was 0.7, the pH ([12]; potassium sorbate 0.01%, 6 h) was 4.42 and the OD ([12]; potassium sorbate 0.01%, 6 h) was 1.36. It also gave a pH ([12]; potassium sorbate 0.01%, 24 h) of 4.35, an OD ([12]; potassium sorbate 0.01%, 24 h) of 1.47 and an Interpretation ([12]; potassium sorbate 0.05%) of 0. For the same compound, the pH ([12]; potassium sorbate 0.05%, 0 h) was 4.69, the OD ([12]; potassium sorbate 0.05%, 0 h) was 0.6 and the pH ([12]; potassium sorbate 0.05%, 6 h) was 4.43. It also gave an OD ([12]; potassium sorbate 0.05%, 6 h) of 1.16, a pH ([12]; potassium sorbate 0.05%, 24 h) of 4.32 and an OD ([12]; potassium sorbate 0.05%, 24 h) of 1.24. It also gave an Interpretation ([12]; potassium sorbate 0.10%) of 0, a pH ([12]; potassium sorbate 0.10%, 0 h) of 4.7 and an OD ([12]; potassium sorbate 0.10%, 0 h) of 0.68. It also gave a pH ([12]; potassium sorbate 0.10%, 6 h) of 4.48, an OD ([12]; potassium sorbate 0.10%, 6 h) of 1.34 and a pH ([12]; potassium sorbate 0.10%, 24 h) of 4.44. For the same compound, the OD ([12]; potassium sorbate 0.10%, 24 h) was 1.24, the Interpretation ([12]; potassium sorbate 0.50%) was 0 and the pH ([12]; potassium sorbate 0.50%, 0 h) was 4.97. The OD ([12]; potassium sorbate 0.50%, 0 h) was 0.67, the pH ([12]; potassium sorbate 0.50%, 6 h) was 4.73 and the OD ([12]; potassium sorbate 0.50%, 6 h) was 1.24. The pH ([12]; potassium sorbate 0.50%, 24 h) was 4.77, the OD ([12]; potassium sorbate 0.50%, 24 h) was 1.15 and the Interpretation ([12]; potassium sorbate 1.00%) was 1. For the same compound, the pH ([12]; potassium sorbate 1.00%, 0 h) was 5.8, the OD ([12]; potassium sorbate 1.00%, 0 h) was 0.65 and the pH ([12]; potassium sorbate 1.00%, 6 h) was 5.01. For the same compound, the OD ([12]; potassium sorbate 1.00%, 6 h) was 1.13, the pH ([12]; potassium sorbate 1.00%, 24 h) was 5.08 and the OD ([12]; potassium sorbate 1.00%, 24 h) was 0.96. It also gave an Interpretation ([12]; potassium sorbate […]) of 1, a pH ([12]; potassium sorbate […], 0 h) of 5.32 and an OD ([12]; potassium sorbate […], 0 h) of 0.64. The pH ([12]; potassium sorbate […], 6 h) was 5.2, the OD ([12]; potassium sorbate […], 6 h) was 0.99 and the pH ([12]; potassium sorbate […], 24 h) was 5.26. It also gave an OD ([12]; potassium sorbate […], 24 h) of 0.76.
For `N[C@@H](CCC(=O)O)C(=O)O` [glutamic acid, L-Glutamic acid], the “redox potential (Eh) of the medium” value [2] was about 300 mV.
For `Cc1ncc([N+](=O)[O-])n1CCO` [metronidazole], the “vaginal redox potential after a successful cure” value [13] is given as “returned to a positive one”.
For `O=S(O)(O)=S` [thiosulfate, Na-Thiosulfate], the “redox potential (Eh) of the medium” value [2] was −36 mV.
